Measured values: PubChem BioAssay AID1552 (Sanford-Burnham Center for Chemical Genomics, 2009)
The source made the active and inactive calls. The rule behind the calls is not given here.

target: Ubiquitin-conjugating enzyme E2 N (Homo sapiens) (UniProt P61088); experiment: NMR detection of UBE2N ligand binding – biophysical, purified protein (AID 1552); settings: NMR binding to purified UBE2N
Sequence (P61088 whole entry, looked up): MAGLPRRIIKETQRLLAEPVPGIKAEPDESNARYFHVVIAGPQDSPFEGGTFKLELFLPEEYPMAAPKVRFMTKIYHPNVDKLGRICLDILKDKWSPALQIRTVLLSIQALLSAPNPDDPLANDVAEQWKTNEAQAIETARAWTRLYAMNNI

Row | Compound | Kd
1 | Cc1cc(=O)oc2cc3c(cc12)OCCO3 | > 4 mM (inactive)
2 | Nc1nsc(-c2ccccc2)n1 | > 4 mM (inactive)
3 | NC(=O)COc1ccccc1O | > 4 mM (inactive)
4 | Cc1n[nH]c(C)c1CC(=O)O | > 4 mM (inactive)
5 | Cc1cccc(N2C(=O)CCC2=O)n1 | > 4 mM (inactive)
6 | CCOc1ccc(C(=O)c2ccc(OC)c(O)c2O)cc1 | > 4 mM (inactive)
7 | NCc1cccc2c1OCCCO2 | > 4 mM (inactive)
8 | CCOC(=O)c1c(C)cc(O)cc1O | > 4 mM (inactive)
9 | Nc1nonc1-c1nc2ccccc2[nH]1 | > 4 mM (inactive)
10 | Cc1ccc(C)n1-c1ccc(C(=O)N2CCOCC2)cc1 | > 4 mM (inactive)
11 | NC(=O)Cn1nnc(-c2ccc(C(F)(F)F)cc2)n1 | > 4 mM (inactive)
12 | O=C(c1ccccc1)N1CCN(c2ccccc2F)CC1 | > 4 mM (inactive)
13 | CC1(C)C(=O)[C@@H]2O[C@@H]2[C@@]2(C)C1C[C@@H](O)[C@]1(C)C2CC[C@@]2(C)[C@H](c3ccoc3)OC(=O)C3OC321 (some centres undefined) | > 4 mM (inactive)
14 | CN(C)C(=O)Nc1ccc(F)cc1F | > 4 mM (inactive)
15 | Nc1cccc(S(=O)(=O)N2CCCCC2)c1 | > 4 mM (inactive)
16 | O=C(Nn1cnnc1)c1cc2c(s1)CCCCC2 | > 4 mM (inactive)
17 | CC(=O)N1CCN(c2ccc(N)cc2)CC1 | > 4 mM (inactive)
18 | Cc1ccc(C(=O)NCCO)c(Cl)c1 | > 4 mM (inactive)
19 | N=c1c2c3c(sc2ncn1N)CCCC3 | > 4 mM (inactive)
20 | O=C1CCCC(=O)N1c1ccc(O)cc1 | > 4 mM (inactive)

Row | Compound | Kd
21 | O=C(O)c1ccc(-n2cccn2)cc1 | > 4 mM (inactive)
22 | NC(=O)Cc1nc(-c2ccccc2)cs1 | > 4 mM (inactive)
23 | Cn1nc(C(=O)Nc2cccnc2)c2ccccc2c1=O | > 4 mM (inactive)
24 | CC(C)[C@@H]1CC[C@@H](C)C[C@H]1OC(=O)c1ccccc1 | > 4 mM (inactive)
25 | COc1c(F)c(F)c(-c2csc(N)n2)c(F)c1F | > 4 mM (inactive)
26 | O=C(Cc1cccs1)N1CCOCC1 | > 4 mM (inactive)
27 | Cc1cc(C)n(-c2cccc3cccnc23)n1 | > 4 mM (inactive)
28 | O=P(O)(Cc1ccccc1)c1ccccc1 | > 4 mM (inactive)
29 | COc1cc(OC)c2c(=O)c(O)c(-c3ccc(OC)c(OC)c3)oc2c1 | > 4 mM (inactive)
30 | Cc1ccccc1-n1c(N)cc(=O)[nH]c1=S | > 4 mM (inactive)
31 | CCSc1nnc2[nH]c(=O)cc(C)n12 | > 4 mM (inactive)
32 | CC(=O)c1c(O)n(C)c(=S)n(C)c1=O | > 4 mM (inactive)
33 | CCc1ccc2oc(-c3cc(N)cc(C)c3O)nc2c1 | > 4 mM (inactive)
34 | COc1cc(C)c(S(=O)(=O)N2CCN(C)CC2)cc1C | > 4 mM (inactive)
35 | Cc1ccccc1C(=O)Nc1cccc(N)c1 | > 4 mM (inactive)
36 | COC(=O)CSc1n[nH]c(N)n1 | > 4 mM (inactive)
37 | Cc1nnc(SCC(=O)NC2CCCC2)[nH]c1=O | > 4 mM (inactive)
38 | Cn1nc(-c2cccs2)cc1N | > 4 mM (inactive)
39 | Cc1cc(C(=O)N2CCOCC2)c(C)o1 | > 4 mM (inactive)
40 | O=C(c1ccccc1)N1CCOCC1 | > 4 mM (inactive)

Row | Compound | Kd
41 | Nc1nnc(C(F)(F)F)s1 | > 4 mM (inactive)
42 | O=C1C2C3C=CC(C3)C2C(=O)N1CCO (centres undefined) | > 4 mM (inactive)
43 | O=S(=O)(c1cccc2cccnc12)N1CCOCC1 | > 4 mM (inactive)
44 | O=c1n(-c2ccccc2)c(=O)n2n1CCCC2 | > 4 mM (inactive)
45 | CC(=O)O[C@H]1C[C@@H](OC(C)=O)C(C)(C)C2CC(=O)[C@]3(C)C(CC[C@@]4(C)[C@H](C(=O)O)OC(=O)C5OC543)[C@]21C (some centres undefined) | > 4 mM (inactive)
46 | CC(=O)NC(=S)Nc1ccccc1C(N)=O | > 4 mM (inactive)
47 | CC(=O)O[C@H]1CC[C@]2(C)C3CC[C@@]4(C)C(CC5O[C@@]6(CCC(C)CO6)[C@@H](C)C54)C3CC[C@@H]2C1 (some centres undefined) | > 4 mM (inactive)
48 | c1cncc(Nc2nc(-c3cccnc3)cs2)c1 | > 4 mM (inactive)
49 | CC(=O)c1cc(-c2nc3ccccc3n2C)n(C)c1 | > 4 mM (inactive)
50 | O=C1C2C3C=CC(C3)C2C(=O)N1CCCO (centres undefined) | > 4 mM (inactive)
51 | O=C1OC(N2CCOCC2)c2ccccc21 (centres undefined) | > 4 mM (inactive)
52 | CC(C)(OC(=O)c1ccccc1)[C@@H]1Cc2cc3ccc(=O)oc3cc2O1 | > 4 mM (inactive)
53 | O=C(CSc1ccnc(=O)[nH]1)NCc1ccccc1 | > 4 mM (inactive)
54 | O=c1[nH]nc(Cc2ccncc2)c2ccccc12 | > 4 mM (inactive)
55 | Cc1ccc(-c2c(C)n([O-])c3c([n+]2=O)CCCC3)o1 | > 4 mM (inactive)
56 | CC(=O)N1CCN(S(=O)(=O)c2ccccc2)CC1 | > 4 mM (inactive)
57 | COc1cccc(C(=O)N2CCOCC2)c1 | > 4 mM (inactive)
58 | COC(=O)c1[nH]c2ccccc2c1C(=O)OC | > 4 mM (inactive)
59 | COc1ccc2c(c1)c1n[nH]c(=S)nc1n2C | > 4 mM (inactive)
